Laboratory results: patent publication EP0206783A2, “Expression and secretion of polypeptides from saccharomyces cerevisiae” (The Salk Institute Biotechnology Industrial Associates, Inc., priority 1985, dated 1986)
Ends that are not written are not given here.

Tested on: pituitary cells
Experiment: rat pituitary cell bioassay for GRF (release of growth hormone)
Type: cell-based
Details: plated rat pituitary cells, dexamethasone added, GH measured by anti-rat GH RIA; yeast peptide purified, from pTRP213-transformed GG100-14D
Method: A rat pituitary cell bioassay for GRF was conducted using the purified GRF analog secreted from pTRP213-transformed S. cerevisiae cells (GG100-14D). The ability of the GRF analog to cause the release of growth hormone from the pituitary cells was measured and compared to the ability of a synthetic hGRF(1-40)-OH standard to do the same. Such an analysis allowed the biological activity of yeast-produced GRF analog to be evaluated.
Typically, pituitaries of 20 rats were removed and treated with collagenase to obtain a suspension of approximately 8×10^7 cells which were then plated in the appropriate medium. The cells, attached to tissue culture dishes, were treated with yeast-derived peptide or synthetic standard within three to five days after plating. Dexamethasone was added to enhance the effect of GRF on GH secretion; cells treated in this manner secrete 8-9 times more GH than do control cells treated with GRF but not dexamethasore. Growth hormone secretion levels were measured using an anti-rat GH RIA which had been standardized with respect to the synthetic standard.
The percent of maximum rat growth hormone secretion upon treatment of the plated pituitary cells with purified GRF analog secreted from yeast and treatment with synthetic hGRF(1-40)-OH was determined. The ED50 value for secretion with both treatments was about. 32 pM.

hGRF(1-40)-OH (YADAIFTNSYRKVLGQLSARKLLQDIMSRQQGESNQERGA-OH; UniProt P01286 32-71, looked up, fragment) [synthetic hGRF(1-40)-OH, synthetic polypeptide standard, hGRF(1-40)-OH (with Met at position 27)]
ED50 value for secretion (percent of maximum rat growth hormone secretion): ~0.032 nM
